Here are results for 21 compounds from ChEMBL document CHEMBL2321706, “Structure-activity relationship of benzodiazepine derivatives as LXXLL peptide mimetics that inhibit the interaction of vitamin D receptor with coactivators” (Bioorg Med Chem, 2013).

Common to all, as to type: cell-based
Data set [1] concerns the target T1, Vitamin D3 receptor (Homo sapiens, UniProt P11473).
T1 sequence (P11473 whole entry): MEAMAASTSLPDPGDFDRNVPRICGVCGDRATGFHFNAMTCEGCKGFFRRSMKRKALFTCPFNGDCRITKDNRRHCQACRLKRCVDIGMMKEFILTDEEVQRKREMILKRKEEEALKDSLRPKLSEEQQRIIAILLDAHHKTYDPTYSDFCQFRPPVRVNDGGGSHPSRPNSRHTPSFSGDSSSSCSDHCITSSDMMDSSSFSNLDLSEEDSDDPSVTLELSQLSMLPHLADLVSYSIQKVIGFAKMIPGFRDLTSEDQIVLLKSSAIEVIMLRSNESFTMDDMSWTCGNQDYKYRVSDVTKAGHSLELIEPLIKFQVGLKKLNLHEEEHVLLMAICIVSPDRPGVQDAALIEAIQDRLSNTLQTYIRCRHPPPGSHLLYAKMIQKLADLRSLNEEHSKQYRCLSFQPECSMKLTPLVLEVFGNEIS
The data set can be described thus: Inhibition of human recombinant GAL4N-fused VDR LBD expressed in HEK293 cells using 1,25(OH)2D3 as substrate assessed as inhibition of cofactor interaction after 16 to 18 hrs by luciferase reporter gene assay. On the technique in general: A reporter such as luciferase makes a cellular process visible.

Data set [2] addresses T2, Vitamin D3 receptor (Homo sapiens) (UniProt P11473).
T2 sequence (whole entry): T1 sequence (P11473 whole entry)
The data set can be described thus: Inhibition of human recombinant GAL4N-fused VDR LBD expressed in HEK293 cells using 1,25(OH)2D3 as substrate assessed as inhibition of cofactor interaction at 30 uM after 16 to 18 hrs by luciferase reporter gene assay relative to control.

In data set [3] the test system is HEK293. Kind of data set: Cytotoxicity to human HEK293 cells at 30 uM after 16 to 18 hrs. The settings on record: hek293, 30 µM.

Activity calls are given as the source filed them. No cut-off for these calls is given here. A value given as a limit tells only on which side of the number the result lay.

With `CCCCc1cc2c(cc1N)N[C@@H](CC(C)C)C(=O)N(CCC(C)C)C2`, the IC50 (usually the concentration that gives 50% inhibition) in data set [1] is 25 µM. Take `CC/C=C/c1cc2c(cc1N)N[C@@H](CC(C)C)C(=O)N(CCC(C)C)C2`: the inhibition (in general, the relative decrease from the control value, in per cent) in data set [2] turned out to be 48%. In data set [1], the IC50 was above 30 µM.

For the compound `CC(C)CCN1Cc2cc(/C=C/CCO)ccc2N[C@@H](CC(C)C)C1=O`, the inhibition in data set [2] came to 28%. Moreover, in data set [1], the IC50 was above 30 µM. For `CC(C)CCN1Cc2cc(CCCO)ccc2N[C@@H](CC(C)C)C1=O` the same measures were 9% and above 30 µM.

As to `CC(C)CCN1Cc2ccc(N)cc2N[C@@H](CC(C)C)C1=O`, in data set [2], the inhibition stood at 7%. For the same compound, the IC50 in data set [1] is above 30 µM. On to `CC(C)CCN1Cc2cc(CC(C)C)ccc2N[C@@H](CC(C)C)C1=O`, for which the inhibition in data set [2] turned out to be 45%. Moreover, the IC50 in data set [1] was above 30 µM. As for `CC(C)CCN1Cc2ccccc2N[C@@H](CC(C)C)C1=O`, the inhibition in data set [2] was 29%. Also, in data set [1], the 50% inhibitory concentration (IC50) was above 30 µM. `CC(C)=Cc1cc2c(cc1N)N[C@@H](CC(C)C)C(=O)N(CCC(C)C)C2`: the IC50 in data set [1] was 26 µM. For the compound `CC(C)CCN1Cc2cc(-c3ccc(C(=O)O)cc3)c(N)cc2N[C@@H](CC(C)C)C1=O`, the inhibition in data set [2] amounted to 8%. Also, in data set [1], the IC50 was above 30 µM. For `CCCCCc1cc2c(cc1N)N[C@@H](CC(C)C)C(=O)N(CCC(C)C)C2` the same measures were 47% and above 30 µM. On to `CC/C=C/c1ccc2c(c1)CN(CCC(C)C)C(=O)[C@H](CC(C)C)N2`, for which the inhibition entry in data set [2] was “inactive”. Consider `CC(C)CCN1Cc2cc(/C=C/CO)ccc2N[C@@H](CC(C)C)C1=O`, for which the inhibition in data set [2] was 27%. Besides, the IC50 in data set [1] is above 30 µM. `C=C(CC)c1ccc2c(c1)CN(CCC(C)C)C(=O)[C@H](CC(C)C)N2`: in data set [2], the inhibition came out at 32%. Besides, the IC50 in data set [1] is above 30 µM.

`CCOC(=O)c1ccc(-c2cc3c(cc2N)N[C@@H](CC(C)C)C(=O)N(CCC(C)C)C3)cc1`: the IC50 in data set [1] is 14 µM.

With `CC(C)CCN1Cc2cc(CCCCO)ccc2N[C@@H](CC(C)C)C1=O`, the inhibition entry in data set [2] is “inactive”.

On to `CCC/C=C/c1cc2c(cc1N)N[C@@H](CC(C)C)C(=O)N(CCC(C)C)C2`, for which, in data set [3], the Activity result was “Toxic”. For the compound `CC(C)CCN1Cc2cc(-c3ccccc3)c(N)cc2N[C@@H](CC(C)C)C1=O`, the IC50 in data set [1] stood at 24 µM. As for `CC(C)=Cc1ccc2c(c1)CN(CCC(C)C)C(=O)[C@H](CC(C)C)N2`, the inhibition entry in data set [2] is “inactive”.

`CC(C)CCN1Cc2cc(I)c(N)cc2N[C@@H](CC(C)C)C1=O`: in data set [1], the IC50 came out at 30 µM. For `CCOC(=O)c1ccc(-c2cc3c(cc2N)N[C@@H](CC(C)C)C(=O)N(CCC(C)C)C3)c(OCCO)c1`, the IC50 in data set [1] was determined as 20 µM. Turning to `CC(C)CCN1Cc2cc(I)ccc2N[C@@H](CC(C)C)C1=O`, the inhibition in data set [2] worked out at 30%. Further, the IC50 in data set [1] is above 30 µM.
